The results in this text go back to patent US5336677A, “Substituted aminopyrimidines as antihypertensives” (American Home Products Corporation, priority 1992, dated 1994).

One assay deals with angiotensin II receptor. Briefly: rat adrenal receptor binding assay, displacement of radiolabeled angiotensin II (Inhibition of 125I Angiotensin II Binding). The conditions noted are these: rat adrenal cortex membranes; 1 nM 125I-A II; 25° C.; 35 min. Here is the method: The high affinity of the compounds for the angiotensin II receptor was established using a rat adrenal receptor binding assay, measuring the displacement of radiolabeled angiotensin II from the receptor, described as follows: Anesthetize male Sprague-Dawley rats (300-400 g body weight) with CO2 and sacrifice by cervical dislocation. Dissect adrenal glands and keep in ice-cold sucrose buffer. (0.2M sucrose, 1 mM EDTA, 10 mM Trizma base, pH=7.2). Remove medulla by squashing. Mince the cortex, rinse and homogenize in a chilled ground glass tissue grinder with 15 ml sucrose buffer. Centrifuge at 3000× g for 10 min. (Sorvall RCSC centrifuge, SS34 rotor 6200 rpm). Decant supernatant through gauze. Centrifuge combined supernatants at 12,000× g for 13 min. (Beckman ultracentrifuge, 80Ti rotor, 13,000 rpm). […] (Beckman ultracentrifuge, 80Ti rotor, 38,200 rpm). All steps are carried out at 4° C. Resuspend the pellet in 0.5 mL assay buffer (50 mM Tris HCI, 5 mM MgCl2, 0.2% BSA (protease-free), pH= 7.4, 25° C.). Store on ice. Determine membrane protein by Lowry or Bradford assay with BSA as standard. The binding assay is performed in triplicate, in 12×75 mm plastic test tubes or in 96-well plate (final volume of 0.25 mL). Add 140 μL assay buffer. […] Add 50 μL membrane suspension (e.g., 10 μg protein). Preincubate for 30 min at 25° C. […] Incubate for 35 min at 25° C. Stop the incubation by adding 1 mL ice-cold buffer (assay buffer without BSA). Filter with GF/C filters on cell harvester (filters are presoaked in the assay buffer containing 1% polyethyleneimine). Rinse assay tubes 3× with 5 mL cold buffer (assay buffer without BSA). Cut and deposit the filter discs into test tubes and count on gamma counter for 1 min. […] Calculate the quantities of hot A II and the cold A II needed and make the dilution. Aliquot, seal tight, and store frozen until needed. Calculate the concentration of the total A II (hot+cold) after dilution. On the day of assay, thaw the frozen aliquot and adjust the volume to give a concentration of 5 pmole/mL (or 0.25 pmole/50 μL) with assay buffer (+protease-free BSA).

A further assay has as its system A II-infused rat. In words: A II-infused rat model, antihypertensive action. The class given is in vivo. The conditions noted are these: 3 mg/kg id (duodenal); four hours post-administration; ganglion-blocked (mecamylamine), A II infusion 0.25 μg/kg/min. As to the method: In accordance with their ability to antagonize angiotensin II, the compounds of this invention show antihypertensive action in the following A II-infused rat model. Rats are anesthetized with Dial-Urethane (0.60 mL/kg, ip) and the trachea cannulated with PE 240. Either one femoral artery and both femoral veins or the carotid artery and the corresponding jugular vein are cannulated with PE 50. If the jugular vein is cannulated, two cannulas are placed in the one vein. The initial portion of the duodenum (just distal to the stomach) is cannulated with PE 50 via a small midline incision. Arterial pressure and heart rate are measured from the arterial cannula. Ten to 15 min are allowed following surgery for stabilization of arterial pressure. Ganglion blockade is then produced by intravenous administration of mecamylamine at 3 mg/kg (1 mL/kg of a 3 mg/mL solution). Ganglion blockade causes a fall in arterial pressure of about 50 mmHg. Mecamylamine is given every 90 min throughout the remainder of the experiment. An A II infusion is then begun into the other venous cannula at 0.25 μg/kg/min (at 9.6 u Vmin). The A II infusion returns arterial pressure to or slightly above the control level. Once arterial pressure has stabilized with the A II infusion, baseline values for mean arterial pressure (MAP) and heart rate are taken. […]

SMILES strings stand for the structures. Where a name gives a salt, the structure may show the parent alone.

Broadly, the IC50 is the concentration needed to halve the response being measured. In the case of `Cc1nc(NCc2ccc(-c3ccccc3-c3nnn[nH]3)cc2)c(C)c(C(F)(F)F)n1` [Example 44, 2,5-Dimethyl-N-[[2'-(1H-tetrazol-5-yl)[1,1'-biphenyl]-4-yl]methyl]-6-(trifluoromethyl)-4-pyrimidinamine hemihydrate], the IC50 on angiotensin II receptor was 20 nM.

Molecule `Cc1nc(NCc2ccc(-c3ccccc3-c3nnn[nH]3)cc2)cc(C(F)(F)C(F)(F)F)n1` [Example 47, 2-Methyl-6-(pentafluoroethyl)-N-[[2'-(1H-tetrazol-5-yl)[1,1'-biphenyl]-4-yl]methyl]-4-pyrimidinamine sodium salt hydrate] displayed an IC50 at angiotensin II receptor of 38 nM. Also, the “lowering of the A II dependent blood pressure (average)” value with A II-infused rat was 57%.

With `Cc1nc(C)c(CC(=O)O)c(NCc2ccc(-c3ccccc3-c3nnn[nH]3)cc2)n1` [Example 56, [2,6-Dimethyl-N-[(2'-(1H-tetrazol-5-yl)[1,1-biphenyl]-4-yl)methyl]-4-pyrimidinamin-5-yl]acetic acid], the IC50 at angiotensin II receptor worked out at 200 nM.

For `CCc1cc(NCc2ccc(-c3ccccc3-c3nnn[nH]3)cc2)nc(C(F)(F)F)n1` [Example 36, 6-Ethyl-N-[[2'-(1H-tetrazol-5-yl)[1,1'-biphenyl]-4-yl]methyl]-2-(trifluoromethyl)-4-pyrimidinamine sodium salt sesquihydrate], at angiotensin II receptor, the IC50 was 5.6 nM.

With `Cc1nc(NCc2ccc(-c3ccccc3C(=O)O)cc2)cc(C(F)(F)F)n1` [Example 51, 4'-[[[2-Methyl-6-(trifluoromethyl)-4-pyrimidinyl]amino]methyl][1,1'-biphenyl]-2-carboxylic acid sesquihydrate], the IC50 on angiotensin II receptor came out at 850 nM. Compared with the last molecule, the IC50 is about 150-fold higher.

`Cc1cc(NCc2ccc(-c3ccccc3C(=O)O)cc2)nc(C(F)(F)F)n1` [Example 52, 4'-[[[6-Methyl-2-(trifluoromethyl)-4-pyrimidinyl]amino]methyl][1,1'-biphenyl]-2-carboxylic acid]: on angiotensin II receptor, the IC50 was found to be 500 nM.

Consider `CCc1nc(C(F)(F)F)nc(NCc2ccc(-c3ccccc3-c3nnn[nH]3)cc2)c1C(C)C` [Example 40, 6-Ethyl-5-(1-methylethyl)-N-[[2'-1H-tetrazol-5-yl)[1,1'-biphenyl]-4-yl]methyl]-2-(trifluoromethyl)-4-pyrimidinamine sodium salt], for which the IC50 on angiotensin II receptor was determined as 6.5 nM. Compared with the last molecule, the IC50 is about 77-fold lower.

Take `Cc1nc(C(F)(F)F)nc(NCc2ccc(-c3ccccc3-c3nnn[nH]3)cc2)c1Cc1ccccc1` [Example 45, 6-Methyl-5-(phenylmethyl)-N-[[2'-(1H-tetrazol-5-yl)[1,1'-biphenyl]-4-yl]methyl]-2-(trifluoromethyl)-4-pyrimidinamine sodium salt hydrate]: the IC50 on angiotensin II receptor was 48 nM. This IC50 lies about 7.4-fold higher than the previous one.

With `C=CCc1c(C)nc(C)nc1NCc1ccc(-c2ccccc2-c2nnn[nH]2)cc1` [Example 53, 2,6-Dimethyl-5-(2-propenyl)-N-[(2'-(1H-tetrazol-5-yl)[1,1-biphenyl]-4-yl)methyl]-4-pyrimidinamine], the 50% inhibitory concentration (IC50) at angiotensin II receptor came to 7.5 nM.

Regarding `Cc1nc(C(F)(F)F)nc(NCc2ccc(-c3ccccc3-c3nnn[nH]3)cc2)c1C(C)C` [Example 35, 6-Methyl-5-(1-methylethyl)-N-[[2'-(1H-tetrazol-5-yl)[1,1'-biphenyl]-4-yl]methyl]-2-(trifluoromethyl)-4-pyrimidinamine sodium salt sesquihydrate], the IC50 at angiotensin II receptor is 3 nM.

For `Cc1nc(NCc2ccc(-c3ccccc3C(=O)O)cc2)cc(C(F)(F)C(F)(F)F)n1` [Example 50, 4'-[[[2-Methyl-6-(pentafluoroethyl)-4-pyrimidinyl]amino]methyl][1,1'-biphenyl]-2-carboxylic acid hemihydrate], the IC50 on angiotensin II receptor was 330 nM.

`Cc1nc(NCc2ccc(-c3ccccc3-c3nnn[nH]3)cc2)cc(C(F)(F)F)n1` [Example 48, 2-Methyl-N-[[2'-(1H-tetrazol-5-yl)[1,1'-biphenyl]-4-yl]methyl]-6-(trifluoromethyl)-4-pyrimidinamine hydrate] had an IC50 at angiotensin II receptor of 61 nM.

As for `CCCc1cnc(C(F)(F)F)nc1NCc1ccc(-c2ccccc2-c2nnn[nH]2)cc1` [Example 39, 5-Propyl-N-[[2'-(1H-tetrazol-5-yl)[1,1'-biphenyl]-4-yl]methyl]-2-(trifluoromethyl)-4-pyrimidinamine sodium salt hydrate], on angiotensin II receptor, the IC50 worked out at 49 nM. The IC50 values of the last two molecules are within 1.5-fold of each other.

Take `CCCc1c(CC)nc(C(F)(F)F)nc1NCc1ccc(-c2ccccc2-c2nnn[nH]2)cc1` [Example 46, 6-Ethyl-5-propyl-N-[[2'-(1H-tetrazol-5-yl)[1,1'-biphenyl]-4-yl]methyl]-2-(trifluoromethyl)-4-pyrimidinamine sodium salt]: the IC50 at angiotensin II receptor is 2.5 nM.

On to `C=CCc1c(C)nc(C(F)(F)F)nc1NCc1ccc(-c2ccccc2-c2nnn[nH]2)cc1` [Example 54], for which the IC50 on angiotensin II receptor was 16 nM.

On angiotensin II receptor, `Cc1nc(C)c(Cc2cccs2)c(NCc2ccc(-c3ccccc3-c3nnn[nH]3)cc2)n1` [Example 55, 2,6-Dimethyl-5-(2-thienylmethyl)-N-[(2'-(1H-tetrazol-5-yl)[1,1-biphenyl]-4-yl)methyl]-4-pyrimidinamine] displayed an IC50 of 58 nM. This IC50 lies about 3.6-fold higher than the previous one.

Take `CCc1cc(NCc2ccc(-c3ccccc3-c3nnn[nH]3)cc2)nc(C)n1` [Example 38, 6-Ethyl-2-methyl-N-[[2'-(1H-tetrazol-5-yl)[1,1'-biphenyl]-4-yl]methyl]-4-pyrimidinamine acetate trihydrate]: at angiotensin II receptor, the IC50 worked out at 7.8 nM.

In the case of `CCCc1c(C)nc(C(F)(F)F)nc1NCc1ccc(-c2ccccc2-c2nnn[nH]2)cc1` [Example 34, 6-Methyl-5-propyl-N-[[2'-(1H-tetrazol-5-yl)[1,1'-biphenyl]-4-yl]methyl]-2-(trifluoromethyl)-4-pyrimidinamine sodium salt hemihydrate], the half-maximal inhibitory concentration (IC50) at angiotensin II receptor was determined as 25 nM.

With `Cc1cccc(Cc2c(NCc3ccc(-c4ccccc4-c4nnn[nH]4)cc3)nc(C)nc2C(F)(F)F)c1` [Example 42, 2-Methyl-5-[(3-methylphenyl)methyl]-N-[[2'-(1H-tetrazol-5-yl)[1,1'-biphenyl]-4-yl]methyl]-6-(trifluoromethyl)-4-pyrimidinamine sodium salt], the IC50 on angiotensin II receptor was 41 nM.

In the case of `C#CCc1c(C)nc(C)nc1NCc1ccc(-c2ccccc2-c2nnn[nH]2)cc1` [Example 57, 2,6-Dimethyl-5-(2-propynyl)-N-[(2'-(1H-tetrazol-5-yl)[1,1-biphenyl]-4-yl)methyl]-4-pyrimidinamine], the IC50 on angiotensin II receptor came to 39 nM.

`CCc1c(NCc2ccc(-c3ccccc3-c3nnn[nH]3)cc2)nc(C)nc1C(F)(F)C(F)(F)F` [Example 43, 5-Ethyl-2-methyl-N-[[2'-(1H-tetrazol-5-yl)[1,1'-biphenyl]-4-yl]methyl]-6-(pentafluoroethyl)-4-pyrimidinamine sodium salt hydrate] gave a concentration for half-maximal inhibition (IC50) at angiotensin II receptor of 11 nM.

`FC(F)(F)C(F)(F)c1cc(NCc2ccc(-c3ccccc3-c3nnn[nH]3)cc2)nc(C2CC2)n1` [Example 37, 2-Cyclopropyl-6-(pentafluoroethyl)-N-[[2'-(1H-tetrazol-5-yl)[1,1'-biphenyl]-4-yl]methyl]-4-pyrimidinamine hydrate]: on angiotensin II receptor, the IC50 was 39 nM.
